“Also recorded” adds a separate entry of the source.
Legend:
[1] = test system: A375Hu melanoma cell line; assay: Anti-proliferative effect of miRNA mimics, MTS assay; type: cell-based, human; details: 10 nM mimic, 72 hours after transfection
Procedure: (§1) The anti-proliferative effect of miRNA's in melanoma cell lines was determined with mature miRNA mimics from Ambion. For each cell line optimal growth and transfection conditions were determined prior to the experiment. Cells were plated in a 96-well plate at 3000 cells per well (100 uL) and were grown at 37 C, 5% CO2. Transfection mix (20 uL per well) was made for each miRNA mimic concentration with 0.3 uL (M249, M249-R4) or 0.5 uL (A375Hu, A375Hu-R1, A2058, RPMI-7951) X-TremeGene (Roche) per well (according to manufacturer's instructions) in Optimem (Invitrogen). Cells were transfected 24 hours after plating in triplicate. Medium was replaced 48 hours after transfection with fresh medium.

[2] = test system: A375Hu-R1 melanoma cell line; assay: as above; type: cell-based, human; details: 10 nM mimic, 72 hours after transfection
Procedure: as §1

A2058 melanoma cell line = assay: as above; type: cell-based; details: 10 nM mimic, 72 hours after transfection
Procedure: as §1

[3] = test system: RPMI-7951 melanoma cell line; assay: as above; type: cell-based; details: 10 nM mimic, 72 hours after transfection
Procedure: as §1

M249 melanoma cell line = assay: as above; type: cell-based; details: 5 nM mimic, 72 hours after transfection
Procedure: as §1

[4] = test system: M249-AR (M249-R4) melanoma cell line; assay: as above; type: cell-based; details: 30 nM mimic, 72 hours after transfection
Procedure: as §1

phospho-ERK1/2 = assay: Western immunoblotting of phospho-ERK1/2 protein levels; type: cell-based, human; details: A375Hu cells, 72 hrs, Western blot
Procedure: (§2) A375Hu cells were seeded in 6-well plates and transfected with different concentrations (10, 50 and 100 nM) of synthetic hsa-miR-129-5p or BRAF siRNA (100 nM) using RNAiMAX (7.5 μl/well). As control a scrambled miRNA and a non-targeting siRNA pool were included. Proteins were harvested 72 hrs post transfection using RIPA buffer supplemented with HALT™ Phosphatase Inhibitor (Thermo Scientific) and Protease Inhibitor Cocktail (Sigma). Fifteen μg protein was loaded on 7.5% TGX acrylamide gels (Bio-Rad) and subsequently transferred to PVDF membranes. The membranes were blocked in 5% milk in TBS-T and incubated O/N at 4° C. with primary antibodies to bRAF, phosphoERK1/2, CDK6, and tubulin (Santa Cruz). After incubation with secondary goat-anti-mouse antibodies (Santa Cruz), membranes were developed using ECL (Pierce).
as §2, with “(1, 10” for “(10, 50”, “hsa-miR-3157” for “hsa-miR-129-5p”, “bRAF, total ERK1/2,” for “bRAF,”, “CDK4, BCL2” for “CDK6,”
as §2, with “concentrations” for “concentrations (10, 50 and 100 nM)”, “vemurafenib (PLX-4032, 0.01, 0.1, 1 uM).” for “synthetic hsa-miR-129-5p or BRAF siRNA (100 nM) using RNAiMAX (7.5 μl/well). As control a scrambled miRNA and a non-targeting siRNA pool were included.”, “bRAF, total ERK1/2,” for “bRAF,”, “CDK4, BCL2” for “CDK6,”
A2058 cells were seeded in 6-well plates and transfected with different concentrations (1, 10 and 100 nM) of synthetic hsa-miR-3157-5p or BRAF siRNA using X-TremeGene (Roche, 15 μl/well). As control a scrambled miRNA was included. Proteins were harvested 72 hrs post transfection using RIPA buffer supplemented with HALT™ Phosphatase Inhibitor (Thermo Scientific) and Protease Inhibitor Cocktail (Sigma). Fifteen μg protein was loaded on 10% TGX acrylamide gels (Bio-Rad) and subsequently transferred to PVDF membranes. The membranes were blocked in 5% milk in TBS-T and incubated O/N at 4° C. with primary antibodies to bRAF, total ERK1/2, phosphoERK1/2, BCL2, CDK4 and tubulin (Santa Cruz). After incubation with secondary goat-anti-mouse antibodies (Santa Cruz), membranes were developed using ECL (Pierce).
Transfection was performed as described in Example 4 in 6-well format. Proteins were isolated using RIPA buffer (50 mM Tris pH 8.0, 150 mM NaCL, 1% NP-40, 0.5% Sodium deoxycholate, 0.1% SDS), supplemented with Protease Inhibitor Cocktail (Sigma) and Halt™ Phosphatase Inhibitor Cocktail (Pierce/Thermo Scientific). […]

CDK6 = assay: Western immunoblotting of CDK6 protein levels; type: cell-based, human; details: A375Hu cells, 72 hrs post transfection, Western blot
Procedure: as §2

| Substance | A375Hu % Viability 10 nM [1] [%] | A375Hu-R1 % Viability 10 nM [2] [%] | A2058 % Viability 10 nM (A2058 melanoma cell line) [%] | RPMI-7951 % Viability 10 nM [3] [%] | M249 % Viability 5 nM (M249 melanoma cell line) [%] | M249-AR % Viability 30 nM [4] [%] | phospho-ERK1/2 protein levels (phospho-ERK1/2) | CDK6 protein levels (CDK6) |
| --- | --- | --- | --- | --- | --- | --- | --- | --- |
| hsa-miR-16-5p: mature miRNA mimic, SEQ ID NO 7 UAGCAGCACGUAAAUAUUGGCG (listed as RNA, chemistry not given here) | 62 | 57 | 39 | 68 | 27 | 68 | – | – |
| hsa-miR-200c-5p: mature miRNA mimic, SEQ ID NO 9 CGUCUUACCCAGCAGUGUUUGG (listed as RNA, chemistry not given here) | 43 | 66 | 37 | 58 | 44 | 58 | – | – |
| hsa-miR-182-3p: mature miRNA mimic, SEQ ID NO 10 UGGUUCUAGACUUGCCAACUA (listed as RNA, chemistry not given here) | – | 59 | 77 | 68 | 71 | 83 | – | – |
| hsa-miR-497-5p: mature miRNA mimic, SEQ ID NO 8 CAGCAGCACACUGUGGUUUGU (listed as RNA, chemistry not given here) | 45 | 57 | 53 | 68 | 29 | 68 | – | – |
| hsa-miR-96-5p: mature miRNA mimic, SEQ ID NO 3 UUUGGCACUAGCACAUUUUUGCU (listed as RNA, chemistry not given here) | 73 | 69 | 33 | 53 | 64 | 82 | – | – |
| hsa-miR-7-5p: mature miRNA mimic, SEQ ID NO 1 UGGAAGACUAGUGAUUUUGUUGU (listed as RNA, chemistry not given here) | 58 | 68 | 51 | 65 | 48 | 67 | – | – |
| hsa-miR-129-5p: mature miRNA mimic, SEQ ID NO 4 CUUUUUGCGGUCUGGGCUUGC (listed as RNA, chemistry not given here) | 59 | 48 | 44 | 82 | 47 | 64 | does not result in pERK down-regulation | significant reduction in CDK6 protein abundance; also recorded: down-regulates |
| hsa-miR-518b: mature miRNA mimic, SEQ ID NO 5 CAAAGCGCUCCCCUUUAGAGGU (listed as RNA, chemistry not given here) | 66 | – | 44 | 53 | 50 | 53 | – | – |
| hsa-miR-10b-3p: mature miRNA mimic, SEQ ID NO 2 ACAGAUUCGAUUCUAGGGGAAU (listed as RNA, chemistry not given here) | 71 | 59 | 42 | 51 | 82 | 86 | – | – |

Reference: US10201556B2, “Combination for use in treating diseases or conditions associated with melanoma, or treating diseases or conditions associated with activated B-raf pathway” (InteRNA Technologies B.V., priority 2012, dated 2019)
